Assay results from patent US9102675B2, “3-Cyanoaryl-1H-pyrrolo[2,3-B] pyridine derivatives” (MERCK PATENT GMBH, priority 2011, dated 2015).

target: T1, IKKε (Homo sapiens, UniProt Q14164); assay: IKKε kinase assay (384-well flashplate assay); format: biochemical; details: 10 μM ATP, 1 nM IKKε; read-out: IKKε enzyme assay IC50
T1 sequence (Q14164 1-716): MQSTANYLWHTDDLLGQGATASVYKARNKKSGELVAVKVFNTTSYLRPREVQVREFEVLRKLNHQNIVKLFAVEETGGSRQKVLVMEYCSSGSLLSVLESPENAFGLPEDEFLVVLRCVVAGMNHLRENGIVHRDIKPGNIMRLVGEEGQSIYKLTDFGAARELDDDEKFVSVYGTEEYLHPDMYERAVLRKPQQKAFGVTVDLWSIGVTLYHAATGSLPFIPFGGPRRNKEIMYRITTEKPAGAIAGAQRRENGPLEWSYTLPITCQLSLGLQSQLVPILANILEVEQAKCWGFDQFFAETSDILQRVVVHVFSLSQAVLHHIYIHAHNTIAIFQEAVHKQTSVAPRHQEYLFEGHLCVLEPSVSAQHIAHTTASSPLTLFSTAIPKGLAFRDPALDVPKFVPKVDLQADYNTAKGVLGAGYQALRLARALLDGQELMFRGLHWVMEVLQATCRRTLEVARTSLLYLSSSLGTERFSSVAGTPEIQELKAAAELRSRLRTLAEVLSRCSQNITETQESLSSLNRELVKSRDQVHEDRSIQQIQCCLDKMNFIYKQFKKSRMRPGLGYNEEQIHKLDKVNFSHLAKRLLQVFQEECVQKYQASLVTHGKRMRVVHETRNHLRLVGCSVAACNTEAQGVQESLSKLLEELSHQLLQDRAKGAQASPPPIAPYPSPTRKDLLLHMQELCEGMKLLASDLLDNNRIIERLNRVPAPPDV
Procedure: Test for the Inhibition of IKKε
IKKε—Kinase Assay (IKKepsilon)
The kinase assay is performed as 384-well flashplate assay (for example for Topcount measurement).
1 nM IKKε, 800 nM biotinylated IκKα(19-42) peptide (Biotin-C6-C6-[…]) and 10 μM ATP (spiked with 0.3 μCi of ^33P-ATP/well) are incubated at 30° C. for 2 hours in a total volume of 50 μl (10 mM MOPS, 10 mM Mg acetate, 0.1 mM EGTA, 1 mM dithiothreitol, 0.02% of Brij35, 0.1% of BSA, 0.1% of BioStab, pH 7.5) with or without test compound. The reaction is stopped using 25 μl of 200 mM EDTA. After 30 min at room temperature, the liquid is removed, and each well is washed three times with 100 μl of 0.9% sodium chloride solution. Non-specific reaction is determined in the presence of 3 μM MSC2119074 (BX-795). The radioactivity is measured using a Topcount (Perkin Elmer). The results (for example IC50 values) are calculated using program tools provided by the IT Department (for example AssayExplorer, Symyx).

IC50 [nM]	Compound
< 300	Cn1cc(-c2cnc3[nH]cc(-c4ccc(OC5CCOCC5)c(C#N)c4)c3c2)cn1 [Compound A4, 5-[5-(1-methylpyrazol-4-yl)-1H-pyrrolo[2,3-b]pyridin-3-yl]-2-tetrahydropyran-4-yloxybenzonitrile]
< 300	CN1CCC(n2cc(-c3cnc4[nH]cc(-c5ccc(OC6CCOCC6)c(C#N)c5)c4c3)nn2)CC1 [Compound A23, 5-[5-[1-(1-methyl-4-piperidyl)triazol-4-yl]-1H-pyrrolo[2,3-b]pyridin-3-yl]-2-tetrahydropyran-4-yloxybenzonitrile]
< 300	N#Cc1cc(-c2c[nH]c3ncc(-c4cnn(C5COC5)c4)cc23)ccc1OC1COC1 [Compound A34, 2-(oxetan-3-yloxy)-5-[5-(1-oxetan-3-yl-1H-pyrazol-4-yl)-1H-pyrrolo-[2,3-b]pyridin-3-yl]benzonitrile]
< 300	CN1CCC(n2cc(-c3cnc4[nH]cc(-c5ccc(OC6CCOCC6)c(C#N)c5)c4c3)cn2)CC1 [Compound A16, 5-[5-[1-(1-methyl-4-piperidyl)pyrazol-4-yl]-1H-pyrrolo[2,3-b]pyridin-3-yl]-2-tetrahydropyran-4-yloxybenzonitrile]
< 300	CN1CCC(Oc2ccc(-c3c[nH]c4ncc(-c5cnn(C)c5)cc34)cc2C#N)CC1 [Compound A13, 2-(1-methylpiperidin-4-yloxy)-5-[5-(1-methyl-1H-pyrazol-4-yl)-1H-pyrrolo[2,3-b]pyridin-3-yl]benzonitrile]
< 300	N#Cc1cc(-c2c[nH]c3ncc(-c4cnn(C5CCNCC5)c4)cc23)ccc1OC1CCOCC1 [Compound A12, 5-[5-(1-piperidin-4-yl-1H-pyrazol-4-yl)-1H-pyrrolo[2,3-b]pyridin-3-yl]-2-(tetrahydropyran-4-yloxy)benzonitrile]
< 300	N#Cc1cc(-c2c[nH]c3ncccc23)ccc1OC1CCOCC1 [Compound A1, 5-(1H-pyrrolo[2,3-b]pyridin-3-yl)-2-tetrahydropyran-4-yloxybenzonitrile]
< 300	CC1(COc2ccc(-c3c[nH]c4ncc(-c5cnn(C6CCNCC6)c5)cc34)cc2C#N)COC1 [Compound A24, 2-[(3-Methyloxetan-3-yl)methoxy]-5-[5-[1-(4-piperidyl)pyrazol-4-yl]-1H-pyrrolo[2,3-b]pyridin-3-yl]-benzonitrile]
< 300	N#Cc1cc(-c2c[nH]c3ncc(-c4cnn(C5CCNCC5)c4)cc23)cnc1OC1CCOCC1 [Compound A18, 5-[5-[1-(4-piperidyl)pyrazol-4-yl]-1H-pyrrolo[2,3-b]pyridin-3-yl]-2-tetrahydropyran-4-yloxypyridine-3-carbonitrile]
< 300	N#Cc1cc(-c2c[nH]c3ncc(-c4cn(CCN5CCCC5)nn4)cc23)ccc1OC1CCOCC1 [Compound A27, 5-[5-[1-(2-Pyrrolidin-1-ylethyl)triazol-4-yl]-1H-pyrrolo-[2,3-b]pyridin-3-yl]-2-tetrahydropyran-4-yloxybenzo-nitrile]
< 300	N#Cc1cc(-c2c[nH]c3ncc(OCCN4CCOCC4)cc23)ccc1OC1CCOCC1 [Compound A21, 5-[5-(2-morpholinoethoxy)-1H-pyrrolo[2,3-b]pyridin-3-yl]-2-tetrahydropyran-4-yloxybenzonitrile]
< 300	CC1(COc2ccc(-c3c[nH]c4ncc(-c5cn[nH]c5)cc34)cc2C#N)COC1 [Compound A36, 2-(3-methyloxetan-3-ylmethoxy)-5-[5-(1H-pyrazol-4-yl)-1H-pyrrolo[2,3-b]pyridin-3-yl]benzonitrile]
< 300	Cn1cc(-c2cnc3[nH]cc(-c4cnc(OC5CCOCC5)c(C#N)c4)c3c2)cn1 [Compound A30, 5-[5-(1-Methylpyrazol-4-yl)-1H-pyrrolo[2,3-b]pyridin-3-yl]-2-tetrahydropyran-4-yloxypyridine-3-carbonitrile]
300 to 3000	CN1CCN(c2cnc3[nH]cc(-c4ccc(OC5CCOCC5)c(C#N)c4)c3c2)CC1 [Compound A17, 5-[5-(4-methylpiperazin-1-yl)-1H-pyrrolo[2,3-b]pyridin-3-yl]-2-tetrahydropyran-4-yloxybenzonitrile]
< 300	N#Cc1cc(-c2c[nH]c3ncc(-c4cnn(C5COC5)c4)cc23)cnc1OC1CCOCC1 [Compound A37, 5-[5-(1-Oxetan-3-yl-1H-pyrazol-4-yl)-1H-pyrrolo-[2,3-b]pyridin-3-yl]-2-(tetrahydropyran-4-yloxy)-nicotinonitrile]
< 300	N#Cc1cc(-c2c[nH]c3ncc(-c4cnn(CCO)c4)cc23)ccc1OC1CCOCC1 [Compound A15, 5-[5-[1-(2-hydroxyethyl)pyrazol-4-yl]-1H-pyrrolo[2,3-b]pyridin-3-yl]-2-tetrahydropyran-4-yloxybenzonitrile]
< 300	N#Cc1cc(-c2c[nH]c3ncc(-c4cn(C5CCNCC5)nn4)cc23)ccc1OC1CCOCC1 [Compound A22, 5-[5-[1-(4-piperidyl)triazol-4-yl]-1H-pyrrolo[2,3-b]pyridin-3-yl]-2-tetrahydropyran-4-yloxybenzonitrile]
< 300	COCCn1cc(-c2cnc3[nH]cc(-c4cnc(OC5CCOCC5)c(C#N)c4)c3c2)cn1 [Compound A38, 5-{5-[1-(2-Methoxyethyl)-1H-pyrazol-4-yl]-1H-pyrrolo-[2,3-b]pyridin-3-yl}-2-(tetrahydropyran-4-yloxy)-nicotinonitrile]
< 300	Cn1cc(-c2cnc3[nH]cc(-c4ccc(OC5COC5)c(C#N)c4)c3c2)cn1 [Compound A31, 5-[5-(1-methyl-1H-pyrazol-4-yl)-1H-pyrrolo[2,3-b]pyridin-3-yl]-2-(oxetan-3-yloxy)benzonitrile]
< 300	N#Cc1cc(-c2c[nH]c3ncc(-c4ccc(N5CCOCC5)cc4)cc23)ccc1OC1CCOCC1 [Compound A8, 5-[5-(4-morpholinophenyl)-1H-pyrrolo[2,3-b]pyridin-3-yl]-2-tetrahydropyran-4-yloxybenzonitrile]
< 300	COCCn1cc(-c2cnc3[nH]cc(-c4ccc(OC5CCOCC5)c(C#N)c4)c3c2)cn1 [Compound A10, 5-[5-[1-(2-methoxyethyl)pyrazol-4-yl]-1H-pyrrolo[2,3-b]pyridin-3-yl]-2-tetrahydropyran-4-yloxybenzonitrile]
< 300	N#Cc1cc(-c2c[nH]c3ncc(-c4cnn(CCN5CCCC5)c4)cc23)cnc1OC1CCOCC1 [Compound A33, 5-{5-[1-(2-Pyrrolidin-1-ylethyl)-1H-pyrazol-4-yl]-1H-pyrrolo[2,3-b]pyridin-3-yl}-2-(tetrahydropyran-4-yl-oxy)nicotinonitrile]
< 300	CN1CCC(n2cc(-c3cnc4[nH]cc(-c5ccc(OC6CCOCC6)c(C#N)c5)c4c3)cn2)CC1 [Compound A20, 5-[5-[1-(1-methyl-4-piperidyl)pyrazol-4-yl]-1H-pyrrolo[2,3-b]pyridin-3-yl]-2-tetrahydropyran-4-yloxybenzonitrile]
< 300	N#Cc1cc(-c2c[nH]c3ncc(-c4cnn(C5COC5)c4)cc23)ccc1OC1CCOCC1 [Compound A26, 5-[5-[1-(Oxetan-3-yl)pyrazol-4-yl]-1H-pyrrolo[2,3-b]-pyridin-3-yl]-2-tetrahydropyran-4-yloxybenzonitrile]
< 300	N#Cc1cc(-c2c[nH]c3ncc(-c4cnn(CCN5CCOCC5)c4)cc23)ccc1OC1CCOCC1 [Compound A7, 5-[5-[1-(2-morpholinoethyl)pyrazol-4-yl]-1H-pyrrolo[2,3-b]pyridin-3-yl]-2-tetrahydropyran-4-yloxybenzonitrile]
< 300	N#Cc1cc(-c2c[nH]c3ncc(-c4cnn(CCN5CCCC5)c4)cc23)ccc1OC1CCOCC1 [Compound A9, 5-[5-[1-(2-pyrrolidin-1-ylethyl)pyrazol-4-yl]-1H-pyrrolo[2,3-b]pyridin-3-yl]-2-tetrahydropyran-4-yloxybenzonitrile]
< 300	CC1(COc2ccc(-c3c[nH]c4ncc(-c5cnn(C6COC6)c5)cc34)cc2C#N)COC1 [Compound A35, 2-(3-methyloxetan-3-ylmethoxy)-5-[5-(1-oxetan-3-yl-1H-pyrazol-4-yl)-1H-pyrrolo[2,3-b]-pyridin-3-yl]benzonitrile]
< 300	Cn1cc(-c2cnc3[nH]cc(-c4ccc(OCC5(C)COC5)c(C#N)c4)c3c2)cn1 [Compound A32, 2-(3-methyloxetan-3-ylmethoxy)-5-[5-(1-methyl-1H-pyrazol-4-yl)-1H-pyrrolo[2,3-b]pyridin-3-yl]benzonitrile]
